Measured values reported in PMC4116524, “A virtual screen identified C96 as a novel inhibitor of phosphatidylinositol 3-kinase that displays potent preclinical activity against multiple myeloma in vitro and in vivo” (Oncotarget, 2014).

What was measured:
[1] = Oral LD50
[2] = tested on: MM cell lines LP1, OPM2, JJN3, OCI-My5, RPMI-8226, U266, KMS11; experiment: Growth inhibition assay (MTT); type: cell-based; settings: panel of MM cell lines, within 72 hrs
Method: MM cells were dispensed in 96-well plates at a density of 8×10^3 cells per well and treated with increasing concentrations of C96 for 72 hrs, and the growth inhibitory effect of C96 on MM cells was assessed by an MTT assay as reported previously. To show the effect of C96 on cell growth in the presence of growth factor IGF-1, MM cells were first maintained in IMDM media containing 0.5% FBS for 12 hrs, followed by C96 treatment alone or in combination with 100 ng/mL of IGF-1. Cells were then incubated for another 24 hrs, relative cell proliferation was analyzed by an MTT assay. […]
www.impactjournals.com/oncotarget/ Oncotarget, Supplementary Materials 2014 SUPPLEMENTARY FIGURES AND TABLE
Supplementary Figure S1: C96 inhibits multiple myeloma cell proliferation. MM cell lines were treated with C96 with indicated concentrations for 72 hrs, followed by MTT assay. […]

[3] = molecular target: T1, mTOR (Homo sapiens, UniProt P42345); experiment: Kinase activity in cell-free assay (HotSpot); type: biochemical
T1 construct: purchased Reaction Biology Corp
Method: (§1) Kinase activity in the presence of C96 was performed by using the HotSpot technology (Reaction Biology Corp., Malvern, PA, USA). Briefly, kinases (PI3Kα, β, δ, γ, AKT1, 2, 3, and mTOR) and substrates were diluted in reaction buffer. Subsequently, 5 nL of serially diluted C96 (in pure DMSO) was delivered into diluted kinase and substrate mixture by using Echo 550 (LabCyte Inc. Sunnyvale, CA). The reaction was started by adding ^33P-ATP (hot ATP) into the reaction mixture (the final concentration was 10 μM) and stopped after 2 hrs incubation at room temperature. The un-reacted hot ATP was washed away before detection.

[4] = molecular target: T2, AKT1 (Homo sapiens, UniProt P31749); experiment: Kinase activity in cell-free assay (HotSpot); type: biochemical
T2 construct: purchased Reaction Biology Corp
T2 sequence (P31749 whole entry): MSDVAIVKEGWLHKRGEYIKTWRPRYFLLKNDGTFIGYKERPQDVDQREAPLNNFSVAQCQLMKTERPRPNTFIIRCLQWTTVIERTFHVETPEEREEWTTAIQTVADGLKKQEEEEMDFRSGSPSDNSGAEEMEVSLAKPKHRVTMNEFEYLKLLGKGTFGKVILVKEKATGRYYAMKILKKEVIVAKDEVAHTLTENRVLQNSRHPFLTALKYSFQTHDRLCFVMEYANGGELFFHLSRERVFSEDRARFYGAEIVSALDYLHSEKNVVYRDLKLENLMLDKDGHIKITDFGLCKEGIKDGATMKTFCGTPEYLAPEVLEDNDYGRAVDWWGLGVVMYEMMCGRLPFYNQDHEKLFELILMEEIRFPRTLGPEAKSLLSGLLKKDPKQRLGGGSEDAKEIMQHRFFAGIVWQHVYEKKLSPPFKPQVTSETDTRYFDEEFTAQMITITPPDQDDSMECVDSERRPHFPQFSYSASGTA
Method: as §1

[5] = molecular target: T3, PI3Kγ (Homo sapiens, UniProt P48736); experiment: Kinase activity in cell-free assay (HotSpot); type: biochemical
T3 construct: purchased Reaction Biology Corp
Method: as §1

[6] = molecular target: T4, PI3Kβ (Homo sapiens, UniProt P42338); experiment: Kinase activity in cell-free assay (HotSpot); type: biochemical
T4 construct: purchased Reaction Biology Corp
Method: as §1

[7] = molecular target: T5, AKT2 (Homo sapiens, UniProt P31751); experiment: Kinase activity in cell-free assay (HotSpot); type: biochemical
T5 construct: purchased Reaction Biology Corp
T5 sequence (P31751 whole entry): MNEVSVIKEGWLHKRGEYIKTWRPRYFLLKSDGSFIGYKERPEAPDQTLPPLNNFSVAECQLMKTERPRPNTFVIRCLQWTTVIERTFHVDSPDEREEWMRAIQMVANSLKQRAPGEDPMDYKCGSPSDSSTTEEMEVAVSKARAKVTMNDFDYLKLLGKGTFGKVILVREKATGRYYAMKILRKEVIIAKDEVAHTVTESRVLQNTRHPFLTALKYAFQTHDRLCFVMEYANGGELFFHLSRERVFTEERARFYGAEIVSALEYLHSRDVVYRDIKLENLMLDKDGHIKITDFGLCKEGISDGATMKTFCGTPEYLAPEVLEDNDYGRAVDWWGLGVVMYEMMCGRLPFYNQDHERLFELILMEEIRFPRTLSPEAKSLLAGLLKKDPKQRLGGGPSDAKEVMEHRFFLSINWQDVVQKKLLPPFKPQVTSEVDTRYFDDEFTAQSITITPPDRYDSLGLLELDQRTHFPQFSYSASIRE
Method: as §1

[8] = molecular target: T6, AKT3 (Homo sapiens, UniProt Q9Y243); experiment: Kinase activity in cell-free assay (HotSpot); type: biochemical
T6 construct: purchased Reaction Biology Corp
T6 sequence (Q9Y243 whole entry): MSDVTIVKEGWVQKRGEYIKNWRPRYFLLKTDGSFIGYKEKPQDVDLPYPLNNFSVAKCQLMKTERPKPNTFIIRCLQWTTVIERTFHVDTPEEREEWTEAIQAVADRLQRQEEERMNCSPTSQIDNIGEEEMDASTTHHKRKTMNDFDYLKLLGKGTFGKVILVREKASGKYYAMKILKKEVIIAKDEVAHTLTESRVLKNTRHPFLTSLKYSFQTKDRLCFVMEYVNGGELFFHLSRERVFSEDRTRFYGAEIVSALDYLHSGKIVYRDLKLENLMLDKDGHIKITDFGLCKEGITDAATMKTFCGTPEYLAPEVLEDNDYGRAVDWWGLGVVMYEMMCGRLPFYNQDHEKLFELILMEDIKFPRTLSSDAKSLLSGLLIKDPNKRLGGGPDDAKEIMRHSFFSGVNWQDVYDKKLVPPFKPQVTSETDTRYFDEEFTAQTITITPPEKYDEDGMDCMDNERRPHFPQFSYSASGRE
Method: as §1

[9] = molecular target: T7, PI3Kδ (Homo sapiens, UniProt O00329); experiment: Kinase activity in cell-free assay (HotSpot); type: biochemical
T7 construct: purchased Reaction Biology Corp
T7 sequence (O00329 whole entry): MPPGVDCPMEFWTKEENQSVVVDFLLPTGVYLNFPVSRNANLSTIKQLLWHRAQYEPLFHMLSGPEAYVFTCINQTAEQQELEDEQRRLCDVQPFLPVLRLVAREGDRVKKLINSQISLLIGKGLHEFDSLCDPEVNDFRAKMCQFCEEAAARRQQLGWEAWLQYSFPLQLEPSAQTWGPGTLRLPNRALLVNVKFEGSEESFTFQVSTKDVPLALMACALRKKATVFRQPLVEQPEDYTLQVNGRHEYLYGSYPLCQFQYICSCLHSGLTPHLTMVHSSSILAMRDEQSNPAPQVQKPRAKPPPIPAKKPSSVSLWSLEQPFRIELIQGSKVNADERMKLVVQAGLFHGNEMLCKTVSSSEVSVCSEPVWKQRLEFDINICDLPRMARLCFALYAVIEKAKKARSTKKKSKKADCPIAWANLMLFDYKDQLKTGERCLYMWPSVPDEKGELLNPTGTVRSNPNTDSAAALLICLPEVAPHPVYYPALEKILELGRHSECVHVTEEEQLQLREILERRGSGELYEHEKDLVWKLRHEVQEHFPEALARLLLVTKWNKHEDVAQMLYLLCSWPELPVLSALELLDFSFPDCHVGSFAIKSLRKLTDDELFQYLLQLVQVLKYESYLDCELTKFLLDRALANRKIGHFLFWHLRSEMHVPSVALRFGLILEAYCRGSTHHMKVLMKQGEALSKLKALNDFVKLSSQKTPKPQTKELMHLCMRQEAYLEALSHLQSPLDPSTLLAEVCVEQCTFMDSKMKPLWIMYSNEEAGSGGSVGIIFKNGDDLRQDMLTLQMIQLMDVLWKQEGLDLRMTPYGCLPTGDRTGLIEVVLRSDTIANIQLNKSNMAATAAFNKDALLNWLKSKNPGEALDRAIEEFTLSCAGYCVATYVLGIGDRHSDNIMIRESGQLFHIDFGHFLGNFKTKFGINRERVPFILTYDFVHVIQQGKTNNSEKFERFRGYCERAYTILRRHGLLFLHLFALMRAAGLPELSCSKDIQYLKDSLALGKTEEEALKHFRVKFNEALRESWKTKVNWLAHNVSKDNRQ
T7 sequence (P27986 whole entry partner): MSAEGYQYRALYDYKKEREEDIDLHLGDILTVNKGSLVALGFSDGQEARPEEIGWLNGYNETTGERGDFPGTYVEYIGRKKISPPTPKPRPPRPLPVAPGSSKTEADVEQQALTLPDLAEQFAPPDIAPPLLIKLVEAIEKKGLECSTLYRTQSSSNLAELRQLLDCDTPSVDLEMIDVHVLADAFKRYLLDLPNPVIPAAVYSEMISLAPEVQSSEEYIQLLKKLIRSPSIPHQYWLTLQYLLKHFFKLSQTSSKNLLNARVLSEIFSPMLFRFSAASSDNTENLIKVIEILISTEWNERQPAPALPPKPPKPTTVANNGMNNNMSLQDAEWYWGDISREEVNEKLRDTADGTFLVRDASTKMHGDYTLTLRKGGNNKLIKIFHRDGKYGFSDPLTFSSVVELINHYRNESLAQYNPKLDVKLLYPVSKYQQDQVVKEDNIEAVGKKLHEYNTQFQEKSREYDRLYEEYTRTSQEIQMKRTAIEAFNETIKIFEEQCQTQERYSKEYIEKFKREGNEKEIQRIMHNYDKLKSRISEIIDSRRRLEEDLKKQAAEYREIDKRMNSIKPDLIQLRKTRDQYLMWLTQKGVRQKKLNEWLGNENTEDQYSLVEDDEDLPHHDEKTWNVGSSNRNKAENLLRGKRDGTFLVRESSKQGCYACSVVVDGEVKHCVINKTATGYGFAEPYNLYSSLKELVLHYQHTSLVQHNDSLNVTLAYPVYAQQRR
Method: as §1

[10] = molecular target: T8, PI3Kα (Homo sapiens, UniProt P42336); experiment: Kinase activity in cell-free assay (HotSpot); type: biochemical
T8 construct: purchased Reaction Biology Corp
T8 sequence (P42336 whole entry): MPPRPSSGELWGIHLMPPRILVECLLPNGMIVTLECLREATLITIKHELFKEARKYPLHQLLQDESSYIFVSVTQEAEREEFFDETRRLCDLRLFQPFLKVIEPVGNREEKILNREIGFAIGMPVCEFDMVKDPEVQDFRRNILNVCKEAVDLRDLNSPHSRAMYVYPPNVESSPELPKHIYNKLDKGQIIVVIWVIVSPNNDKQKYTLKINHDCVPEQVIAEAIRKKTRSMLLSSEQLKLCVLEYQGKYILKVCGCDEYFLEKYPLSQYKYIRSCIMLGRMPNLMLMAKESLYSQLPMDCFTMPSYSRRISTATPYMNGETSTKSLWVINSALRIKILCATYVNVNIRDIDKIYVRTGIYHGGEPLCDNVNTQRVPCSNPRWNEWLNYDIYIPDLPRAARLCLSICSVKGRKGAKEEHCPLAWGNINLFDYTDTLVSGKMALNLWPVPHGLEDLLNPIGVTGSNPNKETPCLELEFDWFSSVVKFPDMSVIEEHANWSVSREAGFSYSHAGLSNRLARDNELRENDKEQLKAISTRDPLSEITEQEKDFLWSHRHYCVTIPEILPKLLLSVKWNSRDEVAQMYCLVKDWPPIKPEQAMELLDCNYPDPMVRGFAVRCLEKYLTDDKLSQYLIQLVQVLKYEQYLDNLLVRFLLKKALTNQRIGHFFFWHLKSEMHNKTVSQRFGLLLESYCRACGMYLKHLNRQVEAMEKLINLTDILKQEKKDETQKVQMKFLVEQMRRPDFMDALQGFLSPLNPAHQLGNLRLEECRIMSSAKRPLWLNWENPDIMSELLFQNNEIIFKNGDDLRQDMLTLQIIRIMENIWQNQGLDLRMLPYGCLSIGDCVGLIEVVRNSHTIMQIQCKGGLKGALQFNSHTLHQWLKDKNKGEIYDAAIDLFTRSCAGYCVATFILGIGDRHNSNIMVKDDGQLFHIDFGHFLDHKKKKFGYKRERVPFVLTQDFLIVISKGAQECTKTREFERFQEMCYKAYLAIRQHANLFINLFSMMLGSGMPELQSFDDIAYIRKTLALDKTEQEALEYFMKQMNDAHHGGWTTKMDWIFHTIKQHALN
T8 sequence (P27986 whole entry partner): as the sequence (P27986 whole entry partner) above
Method: as §1

O=C1NC(=O)C(=CC=Cc2cccs2)C(=O)N1 [C96, 5-(3-(2-thienyl)-2-propen-1-ylidene)-2,4,6(1H,3H,5H)-pyrimidinetrione]
100 mg/kg body weight dose as fraction of the oral LD50 [1]: 1/10
cell proliferation and viability (MTT) [2]: suppressed cell proliferation and reduced cell viability
enzymatic activity mTOR ([3]; 300 μM): higher than 50%
mTOR catalytic activity ([3]; C96 1.00E-04 M): 101.78%
mTOR catalytic activity ([3]; C96 1.11E-05 M): 102.93%
mTOR catalytic activity ([3]; C96 1.23E-06 M): 99.81%
mTOR catalytic activity ([3]; C96 1.37E-07 M): 100.28%
mTOR catalytic activity ([3]; C96 1.52E-08 M): 96.95%
mTOR catalytic activity ([3]; C96 3.00E-04 M): 102.57%
mTOR catalytic activity ([3]; C96 3.33E-05 M): 100.02%
mTOR catalytic activity ([3]; C96 3.70E-06 M): 101.74%
mTOR catalytic activity ([3]; C96 4.12E-07 M): 99.37%
mTOR catalytic activity ([3]; C96 4.57E-08 M): 99.19%
IC50 mTOR ([3]; cell-free): not detectable
enzymatic activity AKT1 ([4]; 300 μM): higher than 50%
AKT1 catalytic activity ([4]; C96 1.00E-04 M): 89.13%
AKT1 catalytic activity ([4]; C96 1.11E-05 M): 104.72%
AKT1 catalytic activity ([4]; C96 1.23E-06 M): 101.71%
AKT1 catalytic activity ([4]; C96 1.37E-07 M): 102.27%
AKT1 catalytic activity ([4]; C96 1.52E-08 M): 94.32%
AKT1 catalytic activity ([4]; C96 3.00E-04 M): 57.61%
AKT1 catalytic activity ([4]; C96 3.33E-05 M): 100.86%
AKT1 catalytic activity ([4]; C96 3.70E-06 M): 110.72%
AKT1 catalytic activity ([4]; C96 4.12E-07 M): 99.76%
AKT1 catalytic activity ([4]; C96 4.57E-08 M): 103.80%
IC50 AKT1 ([4]; cell-free): not detectable
IC50 [5]: 116 µM
IC50 [6]: 134 µM
enzymatic activity AKT2 ([7]; 300 μM): higher than 50%
AKT2 catalytic activity ([7]; C96 1.11E-05 M): 102.16%
AKT2 catalytic activity ([7]; C96 1.23E-06 M): 97.18%
AKT2 catalytic activity ([7]; C96 1.37E-07 M): 97.27%
AKT2 catalytic activity ([7]; C96 1.52E-08 M): 95.67%
AKT2 catalytic activity ([7]; C96 3.00E-04 M): 86.10%
AKT2 catalytic activity ([7]; C96 3.33E-05 M): 100.38%
AKT2 catalytic activity ([7]; C96 3.70E-06 M): 102.25%
AKT2 catalytic activity ([7]; C96 4.12E-07 M): 100.48%
AKT2 catalytic activity ([7]; C96 4.57E-08 M): 100.26%
IC50 AKT2 ([7]; cell-free): not detectable
enzymatic activity AKT3 ([8]; 300 μM): higher than 50%
AKT3 catalytic activity ([8]; C96 1.00E-04 M): 98.26%
AKT3 catalytic activity ([8]; C96 1.11E-05 M): 100.98%
AKT3 catalytic activity ([8]; C96 1.23E-06 M): 100.31%
AKT3 catalytic activity ([8]; C96 1.37E-07 M): 100.29%
AKT3 catalytic activity ([8]; C96 1.52E-08 M): 109.49%
AKT3 catalytic activity ([8]; C96 3.00E-04 M): 79.18%
AKT3 catalytic activity ([8]; C96 3.33E-05 M): 108.59%
AKT3 catalytic activity ([8]; C96 3.70E-06 M): 117.76%
AKT3 catalytic activity ([8]; C96 4.12E-07 M): 106.62%
AKT3 catalytic activity ([8]; C96 4.57E-08 M): 102.54%
IC50 AKT3 ([8]; cell-free): not detectable
EC50 [9]: ~5 µM
IC50 [9]: 7.05 µM
EC50 [10]: ~5 µM
IC50 [10]: 5.41 µM
